Patent publication US20260262643A1, “HERBICIDAL BENZOXAZINES” (FMC CORPORATION, priority 2022, published 2026)

Key:
Experiment in all cases: Test A preemergence
Details in all cases: 1000 g ai/ha, 0 to 100 scale (0 no effect, 100 complete control), 10 days
ryegrass, Italian = assay type: in vivo, Lolium multiflorum
Method in brief: (§1)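 Weeds and crops in loam–sand blend were sprayed preemergence onto soil or postemergence at 2–10 cm (one- to two-leaf stage). Test chemicals were in a non-phytotoxic solvent with surfactant. After 10 days in the greenhouse, injury was rated visually against untreated controls on a 0 (no effect) to 100 (complete control) scale.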

foxtail, giant = assay type: in vivo, Setaria faberi
Method in brief: as §1

barnyardgrass = assay type: in vivo, Echinochloa crusgalli
Method in brief: as §1

ragweed = assay type: in vivo, Ambrosia artemisiifolia
Method in brief: as §1

kochia = assay type: in vivo, Bassia scoparia
Method in brief: as §1

Pigweed, Redroot = assay type: in vivo, Amaranthus retroflexus
From the text: Seeds of plant species selected from barnyardgrass (Echinochloa crusgalli), blackgrass (Alopecurus myosuroides), corn (Zea mays), foxtail, giant (giant foxtail, Setaria faberi), goosegrass (Eleusine indica), kochia (Bassia scoparia), oat, wild (wild oat, Avena fatua), pigweed, palmer (palmer amaranth, palmer pigweed, Amaranthus palmeri), Pigweed, Redroot (redroot pigweed, Amaranthus retroflexus), ragweed (common ragweed, Ambrosia artemisiifolia), ryegrass, Italian (italian ryegrass, Lolium multiflorum), soybean (Glycine max), and wheat (Triticum aestivum) were planted into a blend of loam soil and sand and treated preemergence with a directed soil spray using test chemicals formulated in a non-phytotoxic solvent mixture which included a surfactant. At the same time, plants selected from these crops and weed species and also galium (catchweed bedstraw, Galium aparine) and horseweed (Erigeron canadensis) were planted in pots containing the same blend of loam soil and sand and treated with postemergence applications of test chemicals formulated in the same manner. Plants ranged in height from 2 to 10 cm and were in the one- to two-leaf stage for the postemergence treatment. Treated plants and untreated controls were maintained in a greenhouse for 10 days, after which time all treated plants were compared to untreated controls and visually evaluated for injury. Plant response ratings, summarized in Table A, are based on a 0 to 100 scale where 0 is no effect and 100 is complete control. A dash (-) response means no test result.

CC1CN(C(=O)c2ccnc(-n3cncn3)c2)c2cccc(Cl)c2O1 (stereo not drawn) [Compound 9]
0: Plant response rating, Ryegrass, Italian (ryegrass, Italian) | Plant response rating, Foxtail, Giant (foxtail, giant) | Plant response rating, Barnyardgrass (barnyardgrass) | Plant response rating, Ragweed (ragweed) | Plant response rating, Kochia (kochia) | Plant response rating, Pigweed, Redroot (Pigweed, Redroot)
